Data: patent US12233041B2, “Disulfonate stilbenes for use in the treatment of proliferative diseases” (UNIVERSITÉ DE NANTES, priority 2018, dated 2025)
“Also recorded” adds a separate entry of the source. Like-named read-outs stand apart in the source and are kept apart here.

Experiments:
[1] = target: T1, HsRad51 (Homo sapiens, UniProt Q06609); assay: RAD51 oligomerization by SDS-PAGE gel after crosslink; assay type: biochemical; settings: 2.5 μM HsRad51, disuccinimidyl suberate crosslink, SDS-PAGE/Western blot; FIG. 1
T1 sequence (Q06609 1-339): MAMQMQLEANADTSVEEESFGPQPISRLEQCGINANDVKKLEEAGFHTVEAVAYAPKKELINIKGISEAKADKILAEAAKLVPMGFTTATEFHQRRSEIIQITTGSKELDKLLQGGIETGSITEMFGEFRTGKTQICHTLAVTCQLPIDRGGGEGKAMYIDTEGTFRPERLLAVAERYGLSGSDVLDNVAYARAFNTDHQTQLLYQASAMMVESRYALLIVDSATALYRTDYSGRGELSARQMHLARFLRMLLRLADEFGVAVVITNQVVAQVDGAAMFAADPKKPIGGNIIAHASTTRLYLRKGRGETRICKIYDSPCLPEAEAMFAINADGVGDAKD
Experimental: The reaction was performed at room temperature. 2.5 μm HsRad51 was incubated with the indicated concentrations of tested compounds for 10 min in a buffer containing 20 mm sodium phosphate, 50 mm NaCl, 1 mm MgCl 2, and 1 mm ATP. The cross-linking reactions were initiated by the addition of disuccinimidyl suberate (50 μm) and allowed to proceed for 30 min. Reactions were quenched by the addition of Tris-HCl (pH 7.5, final concentration: 50 mm) followed by subsequent incubations for 15 min. The products were then separated by 12% SDS polyacrylamide gel electrophoresis and detected by Western blot with mouse monoclonal anti-Rad51 antibody (NeoMarkers) and anti-mouse Alexa-Fluor 700-conjugated secondary antibody (Molecular Probes, Eugene, OR). The cross-linked dimer was quantified by an Odyssey Infrared Imaging System scanner (Li-Cor Biosciences) (Martinez, S. F. et al., “Targeting human Rad51 by specific DNA aptamers induces inhibition of homologous recombination”, Biochimie, December 2010, Vol. 92, No. 12, pp. 1832-1838).
The SDS-PAGE electrophoresis after crosslink maintains and immobilizes the RAD51 protein complexes and thus allows visualization of the degree of oligomerization (polymer formation) of the RAD51 protein. The effect of RAD51 protein inhibitors B-1, B-2, B-3, DIDS and X-4 on this key step of RAD51 protein recombinase activity has thus been evaluated. The results are presented on FIG. 1.

[2] = system: DU-145 cell line; assay: Clonogenicity test, sensitizing effect with an antineoplastic drug; assay type: cell-based; settings: Homo sapiens, DU-145, B-2 20 μM
Experimental: Clonogenicity tests are carried out against several model cell lines derived from cancer including prostate cancer (DU-145). Cells are exposed to an anti-cancer agent targeting DNA (cisplatin or camptothecin). Damaged cells are counted and seeded in the presence or in the absence of B-2 in triplicate culture plates. After about two weeks of incubation at 37° C. the number of clones formed is counted. Each cell capable of repairing its lesions will then form a clone. After counting, the percentage of survival will be calculated relative to the control condition for which it is considered that there is 100% survival.
The main interest of RAD51 protein inhibitors is the sensitization of chemo-resistant or radio-resistant cancerous cell lines. Clonogenicity evaluation was carried out on the DU-145 cell line treated with cisplatin treatment in the presence or in the absence of disulfonate stilbene B-2 (RAD51 protein inhibitor).
DU-145 cell line was treated with camptothecin in the presence or in the absence of disulfonate stilbene B-2 (RAD51 protein inhibitor) and the clonogenic cell survival was determined.

[3] = target: T2, Rad51 (Homo sapiens, UniProt Q06609); assay: RAD51 nucleofilament formation by Bio-Layer Interferometry (BLItz), binding of Rad51 to ssDNA
T2 sequence (Q06609 1-339): T1 sequence (Q06609 1-339)
Experimental: The binding of Rad51 to ssDNA was monitored and quantified by Bio-Layer Interferometry technology using the BLItz platform (FortéBio Inc.). The procedure includes four steps: (1) the baseline in buffer A containing 1×PBS, 10 mM MgCl2 and 0.0075% Tween20 was recorded for 20 s; (2) loading and binding of Rad51 were measured for 40 s using 1.5 μM Rad51 and 1 mM ATP in buffer A; (3) the dissociation of Rad51 from ssDNA was recorded for 20 s in buffer A; (4) the ssDNA biosensor was regenerated using baths of 50 mM NaOH. Except for the step 2, which used 4 μL drop of the protein sample, the steps 1, 3 and 4 used 250 μL solutions in 0.5 mL tube. The measurement parameters were as follows: room temperature measurement and stirring speed of 2200 rpm. To investigate the effect of CSB and analogs to the ssDNA binding of Rad51, the molecule was included in the protein sample of the step 2 at the indicated concentrations and incubated for 5 min before loading on the biosensor. (Normand, A. et al., “Identification and characterization of human Rad51 inhibitors by screening of an existing drug library.”, Biochemical Pharmacology, October 2014, Vol. 91, No. 3, pp. 293-300).
A test based on interferometry (Blitz®, Fortebio) allows the measure of the association kinetics of RAD51 protein with a single-stranded DNA immobilized on a biosensor support in the presence or absence of an inhibitor. The effect of compounds B-1, B-2, B-3, BPQ and X-4 on RAD51 nucleofilament formation has been evaluated in presence of increasing doses of inhibitors. The results are presented on FIG. 2.

[4] = system: recombinant fibroblast line RG37; assay: Intracellular homologous recombination (HR), GFP reconstitution after I-SceI cleavage, flow cytometry; assay type: cell-based; settings: RG37 cells, 72 h after pCMV-HA-I-SceI transfection; FIG. 3
Experimental: After transfection with the pCMV-HA-I-SceI plasmid and incubation for 72 h, the cells were collected in PBS and 50 mM EDTA, pelleted and fixed with 2% paraformaledhyde for 20 min. The percentage of GFP-expressing cells was scored by FACS analysis using Cytoflex (Beckman Coulter). At least 3 independent experiments were performed, and HA-I-SceI expression was verified each time by Western blot with rabbit anti-HA antibody (Abcam).
The recombinant fibroblast line RG37 is used to confirm in vitro results (Examples 2-5) in the cellular context. This cellar line comprises two non-functional GFP cassettes, one of which has a unique cleavage site inducible by transfection of a restriction enzyme. After cleavage, which is equivalent to a double-strand break (DSB) of the DNA, the homologous recombination (HR) leads to the reconstitution of a complete GFP cassette thus making the cell fluorescent. The rate of intracellular HR is then determined by measurement in flow cytometry so as to measure the level of HR in cells after treatment with compounds C-3, B-2 and X-2.

activity on nucleofilament formation compared with reference molecule BPQ ([3]; FIG. 2): comparable to or even better | effect on nucleofilament formation compared with DIDS ([3]; high dose (50 μM)): same effect | activity on nucleofilament formation compared with reference molecule DIDS ([3]; low dose (5 μM)): comparable
SMILES: N#Cc1ccc(/C=C/c2ccc(C#N)cc2S(=O)(=O)[O-])c(S(=O)(=O)[O-])c1.[Na+].[Na+] [B-2, Sodium (E)-6,6′-(ethene-1,2-diyl)bis(3-cyanobenzenesulfonate)]
oligomerization state of RAD51 protein [1]: significant reduction; also recorded: very strongly diminished | percent decrease of IC50 at 20 µM ([2]; read-out: decrease of growth inhibition IC50 for camptothecin in presence of B-2): ~90% | percent decrease of IC50 at 20 µM ([2]; read-out: decrease of growth inhibition IC50 for cisplatin in presence of B-2): ~40% | formation of RAD51 protein nucleofilament (relative binding of RAD51 protein with single-stranded DNA) ([3]; increasing doses of inhibitors, FIG. 2): inhibit; also recorded: very strongly diminished | intracellular HR inhibition [4]: significant inhibitory effect
